Measured values as given in patent US8389557B2, “Triazole derivatives useful as Axl inhibitors” (Rigel Pharmaceuticals, Inc., priority 2005, dated 2013).

Molecular target: T1, Axl (Homo sapiens, UniProt P30530)
T1 construct: endogenous in cells; host or cells: HeLa cells
T1 sequence (P30530 26-894): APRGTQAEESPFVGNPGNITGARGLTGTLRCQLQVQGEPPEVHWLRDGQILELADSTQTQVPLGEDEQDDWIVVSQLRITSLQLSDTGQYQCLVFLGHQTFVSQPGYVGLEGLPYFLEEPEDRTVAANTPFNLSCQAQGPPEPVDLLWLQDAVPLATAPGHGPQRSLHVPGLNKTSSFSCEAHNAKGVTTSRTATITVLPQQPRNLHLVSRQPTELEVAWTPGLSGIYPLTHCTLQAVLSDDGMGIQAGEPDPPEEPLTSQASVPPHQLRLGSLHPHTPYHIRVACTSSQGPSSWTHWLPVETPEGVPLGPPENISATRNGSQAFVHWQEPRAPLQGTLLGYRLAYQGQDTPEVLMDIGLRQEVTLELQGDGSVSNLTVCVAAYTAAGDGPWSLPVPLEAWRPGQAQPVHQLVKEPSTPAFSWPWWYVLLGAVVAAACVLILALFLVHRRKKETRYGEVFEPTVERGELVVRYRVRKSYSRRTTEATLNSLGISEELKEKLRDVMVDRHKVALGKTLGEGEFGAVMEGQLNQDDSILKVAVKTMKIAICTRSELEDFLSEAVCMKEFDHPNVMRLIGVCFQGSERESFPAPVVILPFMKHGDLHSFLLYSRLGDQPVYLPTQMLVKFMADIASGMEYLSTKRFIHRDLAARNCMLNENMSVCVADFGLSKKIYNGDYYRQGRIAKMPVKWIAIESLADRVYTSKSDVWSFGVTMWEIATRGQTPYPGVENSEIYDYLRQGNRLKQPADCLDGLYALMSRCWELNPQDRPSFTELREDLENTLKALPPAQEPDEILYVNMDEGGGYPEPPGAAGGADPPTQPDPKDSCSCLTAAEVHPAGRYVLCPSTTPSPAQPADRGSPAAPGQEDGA
Assay: Phospho-Akt in-cell Western assay (inhibition of Axl activity)
Type: cell-based
Method: The compounds of the invention were tested in the following assay for their ability to inhibit Axl activity.
Phospho-Akt in-Cell Western Assay
• Cell culture plate: 96 well assay plate (Corning 3610), white, clear bottom, tissue-culture treated. • Cells: Hela cells. • Starvation medium: For Axl stimulation: 0.5% FCS (fetal calf serum) in DMEM, plus Axl/Fc (extracellular domain of AXL fused to immunoglobulin Fc region) (R&D, 154-AL) 500 ng/mL. • For EGF (epidermal growth factor) stimulation: 0.5% FCS in DMEM (Dulbecco's modified Eagles medium). • Poly-L-Lysine 0.01% solution (the working solution): 10 μg/ml, dilute In PBS (phosphate buffered saline). • Axl antibody cross-linking: • 1st: Mouse anti-Axl (R&D, MAB154). • 2nd: Biotin-SP-conjugated AffiniPure goat anti-mouse IgG (H+L) (Jackson ImmunoResearch #115-065-003). • Fixing buffer: 4% formaldehyde in PBS. • Wash buffer: 0.1% TritonX-100 in PBS. • Quenching buffer: 3% H2O2, 0.1% Azide in wash buffer, Azide and hydrogen peroxide (H2O2) are added fresh. • Blocking buffer: 5% BSA in TBST (tris buffered saline plus 0.1% Tween 20). • Primary antibody: Rabbit anti-human Phospho-Akt antibody (Cell Signaling 9271): 1×250 diluted in blocking buffer. • Secondary antibody: HRP (horse radish peroxidase)-conjugated Goat anti-Rabbit secondary, stock solution: Jackson ImmunoResearch (Goat anti-Rabbit HRP, #111-035-144) 1:1 diluted in glycerol, store at −20° C. The working solution: 1×2000 dilution of stock in blocking buffer. • Chemiluminescent working solution (Pierce, 37030): SuperSignal ELISA (enzyme linked immunosorbant assay) Pico Chemiluminescent substrate. • Crystal Violet solution: Stock: 2.5% Crystal violet in methanol, filtered and kept at ambient temperature. The working solution: dilute the stock 1:20 with PBS immediately before use. • 10% SDS: working solution: 5% SDS (sodium dodecylsulfate), diluted in PBS Methods: Day 1:
A 96 well TC (tissue culture treated) plate was coated with 10 μg/mL poly-L-Lysine at 37° C. for 30 min, washed twice with PBS, and air-dried for 5 minutes before cells were added. Hela cells were seeded at 10,000 cells/well and the cells were starved in 100 μL starvation medium containing Axl/Fc for 24 hrs.
The cells were pre-treated with test compounds by adding 100 μL of 2× test compound to the starvation medium on the cells. The cells were incubated at 37° C. for 1 hr before stimulation.
The cells were stimulated by Axl-antibody cross-linking as follows: A 5×1st/2nd Axl antibody mixture was made (37.5 μg/mL 1st/100 μg/mL 2nd) in starvation medium and nutated at 4° C. with thorough mixing for 1-2 hours for clustering. The resulting mix was warmed to 37° C. 50 μL of 5× Axl 1st/2nd of antibody cluster was added to the cells and the cells were incubated at 37° C. for 5 min.
After 5 minutes stimulation, the plate was flicked to remove medium and the plate was tapped onto paper towels. Formaldehyde (4.0% in PBS, 100 μL) was added to fix the cells and the cells were incubated at ambient temperature for 20 min without shaking.
The cells were washed with a plate washer buffer to remove the formaldehyde solution. The plate was flicked to removed excess wash buffer and tapped onto paper towels. Quenching buffer (100 μL) was added to each well and the cells were incubated at ambient temperature for 20 minutes without shaking.
The cells were washed with a plate washer buffer to remove the quenching buffer. Blocking buffer (100 μL) was added and the cells were incubated at ambient temperature for at least an hour with gentle shaking.
The cells were washed with a plate washer buffer and diluted primary antibody (50 μL) was added to each well (blocking buffer was added to the negative control wells instead). The plates were incubated overnight at 4° C. with gentle shaking.
The wash buffer was removed, diluted secondary antibody (100 μL) was added, and the cells were incubated at ambient temperature for 1 hour with gentle shaking. […]

[1] = inhibition of Axl activity, Table 1
[2] = Table 2, Hela cells, Axl antibody cross-linking stimulation, phospho-Akt chemiluminescence
[3] = inhibition of Axl activity, phospho-Akt in-cell Western assay, Table 1
[4] = Table 3, Hela cells, Axl antibody cross-linking stimulation, phospho-Akt chemiluminescence
[5] = Table 4, Hela cells, Axl antibody cross-linking stimulation, phospho-Akt chemiluminescence

Nc1nc(Nc2ccc(N3CCOCC3)cc2)nn1C(=O)c1ccc(S(N)(=O)=O)cc1 [compound 70, 5-amino-1-(4-(aminosulfonyl)phenyl)carbonyl-3-(4-(morpholin-4-yl)phenylamino)-1H-1,2,4-triazole]
IC50 [1]: > 20 µM

COC(=O)COc1ccc(C(=O)n2nc(Nc3ccc4c(c3)OCCO4)nc2N)cc1 [compound 126, 5-amino-3-(1,4-benzodioxan-6-yl)amino-1-[4-(methoxycarbonylmethoxy)phenyl)carbonyl-1H-1,2,4-triazole]
IC50 [1]: 1 to 10 µM

Nc1nc(Nc2ccc3c(c2)OCCO3)n(C(=O)c2cccc(OCCC3OCCO3)c2)n1 [compound 209]
IC50 [2]: > 20 µM

Nc1nc(Nc2ccccc2)nn1C(=O)c1ccc(N2CCOCC2)cc1 [compound 335, 5-amino-1-(4-(morpholin-4-yl)phenyl)carbonyl-3-(phenylamino)-1H-1,2,4-triazole]
IC50 [3]: > 20 µM

CCCCOc1ccc(NC(=O)n2nc(Nc3ccc(N(C)C(C)=O)cc3)nc2N)cc1 [compound 180, 3-[4-(acetyl(methyl)amino)phenyl]amino-5-amino-N-(4-(butoxy)phenyl)-1H-1,2,4-triazole-1-carboxamide]
IC50 (Table 7, Hela cells, Axl antibody cross-linking stimulation, phospho-Akt chemiluminescence): 1 to 10 µM

Nc1nc(Nc2ccc3c(c2)OCCO3)nn1C(=O)c1ccc(Cl)cc1 [compound 95, 5-amino-1-(4-(chloro)phenyl)carbonyl-3-(1,4-benzodioxan-6-yl)amino-1H-1,2,4-triazole]
IC50 [1]: 1 to 10 µM

COc1ccc(NC(=O)n2nc(N)nc2Nc2ccc(OCCN3CCCCC3)cc2)cc1 [compound 184, 3-amino-N-(4-(methoxy)phenyl)-5-[4-[2-(piperidin-1-yl)ethoxy]phenylamino]-1H-1,2,4-triazole-1-carboxamide]
IC50 (Table 8, Hela cells, Axl antibody cross-linking stimulation, phospho-Akt chemiluminescence): 1 to 10 µM

COc1cccc(Nc2nc(N)n(C(=O)c3ccc(C)cc3)n2)c1 [compound 134, 5-amino-3-[3-(methoxy)phenylamino]-1-(4-(methyl)phenyl)carbonyl-1H-1,2,4-triazole]
IC50 [1]: 1 to 10 µM

Nc1nc(Nc2ccc3c(c2)OCCO3)nn1C(=O)c1cccc(OCc2ccccc2)c1 [compound 156, 5-amino-1-(3-(benzyloxy)phenyl)carbonyl-3-(1,4-benzodioxan-6-yl)amino-1H-1,2,4-triazole]
IC50 [1]: 10 to 20 µM

COc1cccc(C(=O)n2nc(Nc3ccc(N4CCOCC4)cc3)nc2N)c1 [compound 81, 5-amino-1-(3-(methoxy)phenyl)carbonyl-3-(4-(morpholin-4-yl)phenylamino)-1H-1,2,4-triazole]
IC50 [1]: 1 to 10 µM

Nc1nc(Nc2ccc(OCCN3CCCC3)c(F)c2)nn1C(=O)c1ccc2cc[nH]c2c1 [compound 309, 5-amino-1-(1H-indol-6-yl)carbonyl-3-[3-fluoro-4-[2-(pyrrolidin-1-yl)ethoxy]phenylamino]-1H-1,2,4-triazole]
IC50 [4]: < 1 µM

Nc1nc(Nc2ccc(OCCN3CCCCCC3)cc2)nn1C(=O)c1ccc(-c2csnn2)cc1 [compound 324, 5-amino-1-(4-(1,2,3-thiadiazol-4-yl)phenyl)carbonyl-3-[4-[2-(azepan-1-yl)ethoxy]phenylamino]-1H-1,2,4-triazole]
IC50 [3]: < 1 µM

Nc1nc(Nc2ccc3c(c2)OCCO3)nn1C(=O)c1ccc(OCCC2OCCO2)cc1 [compound 214]
IC50 [1]: 1 to 10 µM

CC(C)Oc1ccc(C(=O)n2nc(Nc3ccc(OCCN(C)C)cc3)nc2N)cc1 [compound 85, 5-amino-3-[4-[2-(dimethylamino)ethoxy]phenylamino]-1-(4-(iso-propoxy)phenyl)carbonyl-1H-1,2,4-triazole]
IC50 [3]: < 1 µM

Cc1ccc(C(=O)n2nc(Nc3ccc(OC(C)C)cc3)nc2N)cc1 [compound 55, 5-amino-3-[4-(iso-propoxy)phenylamino]-1-(4-(methyl)phenyl)carbonyl-1H-1,2,4-triazole]
IC50 [1]: < 1 µM

CC(C)Oc1ccc(C(=O)n2nc(N)nc2Nc2ccc(OCCN3CCCCC3)cc2)cc1 [compound 47, 3-amino-1-(4-(iso-propoxy)phenyl)carbonyl-5-[4-[2-(piperidin-1-yl)ethoxy]phenylamino]-1H-1,2,4-triazole]
IC50 [2]: > 20 µM

Cc1cccc(C(=O)n2nc(N)nc2Nc2cccc(OCC(=O)NC3CCCCC3)c2)c1 [compound 164, 3-amino-5-[3-[cyclohexylaminocarbonylmethoxy]phenylamino]-1-(3-(methyl)phenyl)carbonyl-1H-1,2,4-triazole]
IC50 [2]: > 20 µM

Nc1nc(Nc2ccc(OCCN3CCOCC3)cc2)nn1C(=O)c1ccc2cc[nH]c2c1 [compound 265, 5-amino-1-(1H-indol-6-yl)carbonyl-3-[4-[2-(morpholin-4-yl)ethoxy]phenylamino]-1H-1,2,4-triazole]
IC50 [4]: < 1 µM

Nc1nc(Nc2ccc(N3CCOCC3)cc2)n(C(=O)c2cccc(Cl)c2)n1 [compound 75, 3-amino-1-(3-(chloro)phenyl)carbonyl-5-(4-(morpholin-4-yl)phenylamino)-1H-1,2,4-triazole]
IC50 [2]: > 20 µM

COc1ccc(Nc2nc(N)n(C(=O)c3ccc(OC(C)C)cc3)n2)cc1 [compound 117, 5-amino-1-(4-(iso-propoxy)phenyl)carbonyl-3-[4-(methoxy)phenylamino]-1H-1,2,4-triazole]
IC50 [1]: 1 to 10 µM

Nc1nc(Nc2ccc(OCCN3CC[C@H](F)C3)cc2)n(C(=O)c2ccc3cc[nH]c3c2)n1 [compound 389, 3-amino-1-(1H-indol-6-yl)carbonyl-5-[4-[2-((S)-3-fluoropyrrolidin-1-yl)ethoxy]phenylamino]-1H-1,2,4-triazole]
IC50 [5]: < 1 µM

CC(C)Oc1cccc(C(=O)n2nc(Nc3cccc(-c4cnco4)c3)nc2N)c1 [compound 170, 5-amino-1-(3-(iso-propoxy)phenyl)carbonyl-3-[3-(1,3-oxazol-5-yl)phenylamino]-1H-1,2,4-triazole]
IC50 [1]: 1 to 10 µM

Nc1nc(Nc2ccc(OCCn3ccnc3)cc2)n(C(=O)c2ccc3cc[nH]c3c2)n1 [compound 376, 3-amino-1-(1H-indol-6-yl)carbonyl-5-[4-[2-(imidazol-1-yl)ethoxy]phenylamino]-1H-1,2,4-triazole]
IC50 [5]: < 1 µM
